Results on two compounds are retold here after US20060257432A1, “Pharmaceutical formulations of xanthogenates and inhibitors of viral nucelic acid replication” (priority 2003, published 2006).

One assay concerns HSV-1 (Wal strain). Nature of the assay: Experimental skin infection of mice with HSV-1, ointment treatment. It counts as in vivo, mice (Balb-C strain). The settings on record: HSV-1-infected Balb-C mice, 5% ointment twice daily from day 4 after infection; for survival: 14 days, placebo: 3 of 10 survived. The method, then: One part (by weight) D609, one part (by weight) potassium salt of decanoic acid, and four parts (by weight) cholesterol were mixed in a mortar. Subsequently, propyleneglycol (final concentration 10%) and vaseline were added such that the final concentration of D609 was 5%. The same procedure was used to produce ointments containing 5% aciclovir or 5% D609 and 5% aciclovir. A placebo ointment containing neither of the two agents was produced using the analogous procedure.
Ten mice (Balb-C strain) each were shaved on their upper leg and six scratches in the skin were made with a cannula in an area of 5×5 mm. Subsequently, a cotton bud was used to apply 50 μl of a HSV-1 suspension (Wal strain, 10^8 plaque-forming units/ml). The treatment (twice daily) was initiated four days after infection. The symptoms, “widespread lesions”, “hind leg paralysis”, and survival were recorded in the protocol.
The result is shown graphically in FIGS. 2a to 2d. […] Triangles indicate the surviving animals in each case, squares the animals with hind leg paralysis, and diamonds the animals with widespread lesions.

In assay [1] the test system is herpes simplex virus (Type-1, strain ANG). Nature of the assay: Plaque formation of herpes simplex virus in Calu-6 cells. It counts as cell-based. As to conditions: for number of plaques: Calu-6 cells, 48 h. Here is the method: Human lung carcinoma cells (Calu-6) were infected with 30 plaque-forming units of herpes simplex virus (Type-1, strain ANG) in Linbro plates. Cell culture medium (MEM containing 10% fetal calf serum, 0.85 g/l sodium bicarbonate, and 0.5% carboxymethylcellulose) containing either 0, 5 or 10 μg/ml exo/exo-tricyclo[5,2,1,0^2,6]-9yl-xanthogenate (D609) was added two hours after infection. The cultures were treated with aciclovir at the same time. All samples were processed as quadruplicates. The cells were incubated for 48 h at 37° C. under CO2 gassing (5%). Then the medium was decanted, the cells were fixed with 3% formalin and stained with 0.5% crystal violet. After drying at room temperature, the number of plaques formed was determined.

Consider `S=C(S)OC1CC2CC1C1CCCC21` (stereo not drawn) [D609, exo/exo-tricyclo[5,2,1,0^2,6]-9yl-xanthogenate], for which, in the assay on HSV-1 (Wal strain), the “healing of lesions and paralysis” value is on record as “almost completely healed”; the survival entry is given as “survival rate higher”. The same compound showed a number of plaques in assay [1] (5 μg/ml D609 alone, no-D609 control 32.75±11) of 32±3. Besides, the number of plaques in assay [1] (10 μg/ml D609 alone, no-D609 control 32.75±11) came to 33±6. Moreover, the “effect on plaque formation” value in assay [1] (D609 alone at 5 or 10 μg/ml) is “no effect”.
With `Nc1nc2c(ncn2COCCO)c(=O)[nH]1` [aciclovir], in the assay with HSV-1 (Wal strain), the “healing of lesions and paralysis” value was “almost completely healed”; the survival result is given as “survival rate higher”. In assay [1] (aciclovir 0.16 μM alone, not statistically significant (p=0.4)), this compound displayed a number of plaques of 30±11. For the same compound, the “increase of the effect of aciclovir in cell culture” value in assay [1] (in the presence of low, antivirally ineffective concentrations of the xanthogenate) was “increased up to five-fold”.
